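A five-concentration, 48-hour dose response in 96-well plates underlies each endpoint, interpolated linearly between surrounding concentrations. GI50 marks 50% less growth. Definition used: TGI = concentration required for complete inhibition of growth.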
Assays:
Assay in all cases: NCI tumour cell line growth inhibition, 48 h
A498 renal = system: A498 renal
ACHN renal = system: ACHN renal
DU-145 prostate = system: DU-145 prostate
HOP-92 NSCLC = system: HOP-92 NSCLC
LOX IMVI melanoma = system: LOX IMVI melanoma
MDA-MB-231 breast = system: MDA-MB-231 breast
OVCAR-4 ovarian = system: OVCAR-4 ovarian
OVCAR-5 ovarian = system: OVCAR-5 ovarian
OVCAR-8 ovarian = system: OVCAR-8 ovarian
RXF 393 renal = system: RXF 393 renal
SF-539 CNS = system: SF-539 CNS
SK-MEL-28 melanoma = system: SK-MEL-28 melanoma
SNB-75 CNS = system: SNB-75 CNS
TK-10 renal = system: TK-10 renal
UACC-62 melanoma = system: UACC-62 melanoma
UO-31 renal = system: UO-31 renal

**Q.** Which GI50 (A498 renal) does the source give for `C=C(C)[C@@H]1CC[C@]2(COCCCNCCCN)CC[C@]3(C)[C@H](CC[C@@H]4[C@@]5(C)CC[C@H](O)C(C)(C)[C@@H]5CC[C@]43C)[C@@H]12` here?
**A.** 1850 nM

**Q.** And the TGI (A498 renal)?
**A.** 4210 nM

**Q.** What about the GI50 (ACHN renal) of the same compound?
**A.** 1780 nM

**Q.** What about the TGI (ACHN renal) of the same compound?
**A.** 3240 nM

**Q.** What about the GI50 (DU-145 prostate) of the same compound?
**A.** 1940 nM

**Q.** And the TGI (DU-145 prostate)?
**A.** 3490 nM

**Q.** What about the GI50 (HOP-92 NSCLC) of the same compound?
**A.** 1520 nM

**Q.** What about the TGI (HOP-92 NSCLC) of the same compound?
**A.** 3140 nM

**Q.** And the GI50 (LOX IMVI melanoma)?
**A.** 234 nM

**Q.** What about the TGI (LOX IMVI melanoma) of the same compound?
**A.** 2280 nM

**Q.** And the GI50 (MDA-MB-231 breast)?
**A.** 1850 nM

**Q.** What about the TGI (MDA-MB-231 breast) of the same compound?
**A.** 3490 nM

**Q.** What about the GI50 (OVCAR-4 ovarian) of the same compound?
**A.** 1960 nM

**Q.** What about the TGI (OVCAR-4 ovarian) of the same compound?
**A.** 3730 nM

**Q.** What about the GI50 (OVCAR-5 ovarian) of the same compound?
**A.** 1750 nM

**Q.** And the TGI (OVCAR-5 ovarian)?
**A.** 3230 nM

**Q.** What about the GI50 (OVCAR-8 ovarian) of the same compound?
**A.** 2140 nM

**Q.** What about the TGI (OVCAR-8 ovarian) of the same compound?
**A.** 4880 nM

**Q.** And the GI50 (RXF 393 renal)?
**A.** 1570 nM

**Q.** What about the TGI (RXF 393 renal) of the same compound?
**A.** 2960 nM

**Q.** And the GI50 (SF-539 CNS)?
**A.** 1770 nM

**Q.** What about the TGI (SF-539 CNS) of the same compound?
**A.** 3390 nM

**Q.** And the GI50 (SK-MEL-28 melanoma)?
**A.** 1750 nM

**Q.** And the TGI (SK-MEL-28 melanoma)?
**A.** 3370 nM

**Q.** What about the GI50 (SNB-75 CNS) of the same compound?
**A.** 1730 nM

**Q.** And the TGI (SNB-75 CNS)?
**A.** 3370 nM

**Q.** What about the GI50 (TK-10 renal) of the same compound?
**A.** 1840 nM

**Q.** What about the TGI (TK-10 renal) of the same compound?
**A.** 3560 nM

**Q.** What about the GI50 (UACC-62 melanoma) of the same compound?
**A.** 1770 nM

**Q.** And the TGI (UACC-62 melanoma)?
**A.** 3390 nM

**Q.** What about the GI50 (UO-31 renal) of the same compound?
**A.** 1600 nM

**Q.** And the TGI (UO-31 renal)?
**A.** 3030 nM
